Experimental data taken from patent US10173969B2, “Production of aniline via anthranilate” (Covestro Deutschland AG, priority 2014, dated 2019).

Tests used:
[1] = Solubility of ammonium anthranilate in buffer solution; type: physicochemical; conditions: AA buffer solution with NH4OH added
From the text: (§1) In this experiment, the kinetics of the thermal decarboxylation of step b) of the method according to the invention was studied. […] In this case it was possible to decarboxylate anthranilate ion to aniline (ANL). AA, or o-aminobenzoate, respectively was either provided biologically by a recombinant microbial host as described in Example 1, or it was provided chemically, e.g. it was commercially obtained, e.g. from Sigma Aldrich, catalog no. A89855.
(§2) A buffer solution containing (NH4)2SO4 (20 g/L), Na2HPO4 (1 g/L) and KH2PO4 (1 g/L) in distilled water was prepared. Then AA 10 wt % was suspended in this solution. NH4OH solution (28-30% NH3) was added dropwise into this suspension until a clear yellow solution was formed. The pH of this ammonium anthranilate (NH4AA) solution was around 7. The ammonium anthranilate (3 wt %) solution was also prepared using this method.

[2] = Kinetics of thermal decarboxylation in aqueous buffer solution without catalyst; type: physicochemical; conditions: for k (rate coefficient of decarboxylation) / n (order of reaction of decarboxylation): buffer solution, no catalyst
From the text: as §1, §2
80 mL of each of the above solutions was transferred into an autoclave 160 mL and heated to 160° C. or 180° C. and samples were taken at different time intervals to analyse the rate of aniline (ANL) formation.
Decarboxylation of AA 0.5 wt % and NH4AA 3 wt % in aqueous buffer solution was performed at 160° C. without using any catalyst. […] The kinetic model was established using the general reaction rate formula as below and considering the experimental data to calculate the optimized k and n parameters which are the rate coefficient and the order of reaction, respectively.
The kinetics of NH4AA 10 wt % decarboxylation at 160° C. and 180° C. was also studied using experimental data and a simulating model.

[3] = reaction temperature 160 °C, listed as NH4AA 10% in buffer solution

SMILES	solubility [1]	rate coefficient (k) relative to that of NH4AA 3 wt % ([2]; 160 °C, decarboxylation in water)	k (rate coefficient of decarboxylation) ([2]; reaction temperature 160 °C)	n (order of reaction of decarboxylation) ([2]; reaction temperature 160 °C)	rate coefficient at 180 °C relative to that at 160 °C ([2]; NH4AA 10 wt %)	k (rate coefficient of decarboxylation) [2, 3]	n (order of reaction of decarboxylation) [2, 3]	k (rate coefficient of decarboxylation) ([2]; reaction temperature 180 °C)	n (order of reaction of decarboxylation) ([2]; reaction temperature 180 °C)
N.Nc1ccccc1C(=O)O [ammonium anthranilate]	up to 10%								
Nc1ccccc1C(=O)O [AA 0.5% in buffer solution, anthranilic acid]		6.8 times	0.0519 h⁻¹	0.9207					
N.Nc1ccccc1C(=O)O [NH4AA 3% in buffer solution, ammonium anthranilate]			0.00755 h⁻¹	0.8706	36 times	0.000713 h⁻¹	1.2758	0.026 h⁻¹	0.9793
